Test results reported in ChEMBL document CHEMBL3045638, “Quantitative structure-activity relationship of terpenoid aphid antifeedants” (2008).

tested on: Lipaphis erysimi; test: Antifeedant activity against apterous adult stage of Lipaphis erysimi (mustard aphids) in compound pre-treated cabbage leaves assessed as antifeedant ratio measured after 48 hr; type: functional

**Q.** Which Ratio does the source give for `COCCC1=CCC2CC1C2(C)C` (stereo unspecified) here?
**A.** Its Ratio is 0.548.

**Q.** Which Ratio does the source give for `CC(=O)OCCC1C2CCC(C2)C1(C)C` (stereo unspecified) here?
**A.** The Ratio was 0.628.

**Q.** Which Ratio does the source give for `CC1(C)C2CC3OC3(C)C1C2` (stereo unspecified) here?
**A.** The Ratio was 0.415.

**Q.** `C=C(C)C1CC=C(CCOC(=O)CC)CC1` (stereo unspecified) was tested. Which Ratio did it give?
**A.** The Ratio was 0.701.

**Q.** With `CC1CCC(C(C)C)C(O)C1` (stereo unspecified) [MENTHOL] as the molecule, how does the Ratio read?
**A.** Its Ratio is 0.584.

**Q.** `CCC(=O)OCCC1=CCC2CC1C2(C)C` (stereo unspecified) was tested. Which Ratio did it give?
**A.** Its Ratio is 0.63.

**Q.** Which Ratio does the source give for `CCOCCC1=CCC2CC1C2(C)C` (stereo unspecified) here?
**A.** The Ratio was 0.522.

**Q.** For `CC(=O)OCCC1=CCC2CC1C2(C)C` (stereo unspecified), which Ratio is on record?
**A.** Its Ratio is 0.572.

**Q.** `CC(=O)OC1CC(C(C)(C)O)CC=C1C` (stereo unspecified) was tested. Which Ratio did it give?
**A.** Its Ratio is 0.476.

**Q.** How did the Ratio turn out when `C=C(C)C1CC=C(CCOC(C)=O)CC1` (stereo unspecified) was run?
**A.** Its Ratio is 0.674.

**Q.** How did the Ratio turn out when `CCCC(CCCC1C2CCC(C2)C1(C)C)OC(C)=O` (stereo unspecified) was run?
**A.** The Ratio was 0.813.

**Q.** `CC1(C)C2CC=C(CCO)C1C2` (stereo unspecified) [Nopol] was tested. Which Ratio did it give?
**A.** Its Ratio is 0.47.

**Q.** How did the Ratio turn out when `CCC(CCC1C2CCC(C2)C1(C)C)C(C)OC(C)=O` (stereo unspecified) was run?
**A.** The Ratio was 0.786.

**Q.** For `CCC(CCCC1C2CCC(C2)C1(C)C)OC(C)=O` (stereo unspecified), which Ratio is on record?
**A.** The Ratio was 0.83.

**Q.** With `CC1=CCC(C(C)(C)O)CC1O` (stereo unspecified) [SOBREROL] as the molecule, how does the Ratio read?
**A.** Its Ratio is 0.463.

**Q.** For `CC1=CCC(C(C)(C)O)CC1OC=O` (stereo unspecified), which Ratio is on record?
**A.** The Ratio was 0.42.

**Q.** With `CC1(C)C2CC=C(CCOC=O)C1C2` (stereo unspecified) as the molecule, how does the Ratio read?
**A.** Its Ratio is 0.518.

**Q.** For `CCCOCCC1=CCC2CC1C2(C)C` (stereo unspecified), which Ratio is on record?
**A.** The Ratio was 0.504.

**Q.** `CC(=O)OC1CC(C)CCC1C(C)C` (stereo unspecified) was tested. Which Ratio did it give?
**A.** The Ratio was 0.533.

**Q.** For `CCC(=O)OC1CC(C(C)(C)O)CC=C1C` (stereo unspecified), which Ratio is on record?
**A.** Its Ratio is 0.526.

**Q.** For `CCC(=O)OC1CC(C)CCC1C(C)C` (stereo unspecified), which Ratio is on record?
**A.** Its Ratio is 0.505.
